Tests used:
Type in all cases: in vivo
Melanoplus sanguinipes = assay: Caged grassland treatment, mortality of grasshoppers; details: for Effectiveness (%) against the grasshopper Melanoplus Sanquinipes, Persistence of Action 7 DAT / Effectiveness (%) against the grasshopper Melanoplus Sanquinipes, Persistence of Action 15 DAT / Effectiveness (%) against the grasshopper Melanoplus Sanquinipes, Persistence of Action 28 DAT: infestation renewed 2 days before
Method: A zone of grassland is treated under controlled conditions, using cages to limit the space of movement of the insects. This zone is infested at a rate of 40 grasshoppers (Melanoplus sanguinipes) per m^2. For experimental purposes, the infestation is renewed 2 days before each observation of the effectiveness of the products, without performing a new insecticide treatment. The results are observed by performing mortality measurements (=percentage of grasshoppers killed). A remarkable persistence of action is observed.

Chortoicetes terminifera = assay: Grassland treatment, mortality of locusts; details: for Effectiveness (%) against the locust Chortoicetes terminifera, Persistence of action 5 DAT / Effectiveness (%) against the locust Chortoicetes terminifera, Persistence of action 10 DAT / Effectiveness (%) against the locust Chortoicetes terminifera, Persistence of action 20 DAT / Effectiveness (%) against the locust Chortoicetes terminifera, Persistence of action 30 DAT: infestation renewed 2 days before
Method: (§1) A zone of grassland infested at a rate of 40 locusts (Chortoicetes terminifera) per m2 is treated, and the infestation is renewed 2 days before each effectiveness measurement. The results are observed by performing mortality measurements (=percentage of locusts killed). A remarkable persistence of action is observed.

Schistocerca gregaria = assay: Grassland treatment, mortality of locusts; details: for Effectiveness (%) against the locust (Schistocerca gregaria), Persistence of action 7 DAT / Effectiveness (%) against the locust (Schistocerca gregaria), Persistence of action 14 DAT / Effectiveness (%) against the locust (Schistocerca gregaria), Persistence of action 18 DAT: infestation renewed 2 days before
From the text: as §1, with “One treats a zone” for “A zone”, “locusts (Schistocerca gregaria)” for “locusts (Chortoicetes terminifera)”, “per m^2. For experimental purposes,” for “per m2 is treated, and”

Compound: N#Cc1nn(-c2c(Cl)cc(C(F)(F)F)cc2Cl)c(N)c1[S+]([O-])C(F)(F)F (centres unmarked) [Product A, 1-[2,6-dichloro-4-CF3-phenyl)-3-cyano-4-CF3SO-5-NH2-pyrazole]
- Effectiveness (%) against the grasshopper Melanoplus Sanquinipes, Immediate Action 1 DAT (Melanoplus sanguinipes; 6.2 g Product A per hectare): 87%
- Effectiveness (%) against the grasshopper Melanoplus Sanquinipes, Persistence of Action 7 DAT (Melanoplus sanguinipes; 6.2 g Product A per hectare): 98%
- Effectiveness (%) against the grasshopper Melanoplus Sanquinipes, Persistence of Action 15 DAT (Melanoplus sanguinipes; 6.2 g Product A per hectare): 93%
- Effectiveness (%) against the grasshopper Melanoplus Sanquinipes, Persistence of Action 28 DAT (Melanoplus sanguinipes; 6.2 g Product A per hectare): 38%
- Effectiveness (%) against the grasshopper Melanoplus Sanquinipes, Immediate Action 1 DAT (Melanoplus sanguinipes; 12.5 g Product A per hectare): 93%
- Effectiveness (%) against the grasshopper Melanoplus Sanquinipes, Persistence of Action 7 DAT (Melanoplus sanguinipes; 12.5 g Product A per hectare): 100%
- Effectiveness (%) against the grasshopper Melanoplus Sanquinipes, Persistence of Action 15 DAT (Melanoplus sanguinipes; 12.5 g Product A per hectare): 100%
- Effectiveness (%) against the grasshopper Melanoplus Sanquinipes, Persistence of Action 28 DAT (Melanoplus sanguinipes; 12.5 g Product A per hectare): 69%
- Effectiveness (%) against the grasshopper Melanoplus Sanquinipes, Immediate Action 1 DAT (Melanoplus sanguinipes; 25 g Product A per hectare): 98%
- Effectiveness (%) against the grasshopper Melanoplus Sanquinipes, Persistence of Action 7 DAT (Melanoplus sanguinipes; 25 g Product A per hectare): 100%
- Effectiveness (%) against the grasshopper Melanoplus Sanquinipes, Persistence of Action 15 DAT (Melanoplus sanguinipes; 25 g Product A per hectare): 100%
- Effectiveness (%) against the grasshopper Melanoplus Sanquinipes, Persistence of Action 28 DAT (Melanoplus sanguinipes; 25 g Product A per hectare): 93%
- Effectiveness (%) against the locust Chortoicetes terminifera, Immediate Action 1 DAT Adults (Chortoicetes terminifera; 3.1 g product A per hectare): 58%
- Effectiveness (%) against the locust Chortoicetes terminifera, Immediate Action 1 DAT Nymphs (Chortoicetes terminifera; 3.1 g product A per hectare): 70%
- Effectiveness (%) against the locust Chortoicetes terminifera, Persistence of action 5 DAT (Chortoicetes terminifera; 3.1 g product A per hectare): 96%
- Effectiveness (%) against the locust Chortoicetes terminifera, Persistence of action 10 DAT (Chortoicetes terminifera; 3.1 g product A per hectare): 90%
- Effectiveness (%) against the locust Chortoicetes terminifera, Persistence of action 20 DAT (Chortoicetes terminifera; 3.1 g product A per hectare): 74%
- Effectiveness (%) against the locust Chortoicetes terminifera, Persistence of action 30 DAT (Chortoicetes terminifera; 3.1 g product A per hectare): 55%
- Effectiveness (%) against the locust Chortoicetes terminifera, Immediate Action 1 DAT Adults (Chortoicetes terminifera; 6.25 g product A per hectare): 93%
- Effectiveness (%) against the locust Chortoicetes terminifera, Immediate Action 1 DAT Nymphs (Chortoicetes terminifera; 6.25 g product A per hectare): 100%
- Effectiveness (%) against the locust Chortoicetes terminifera, Persistence of action 5 DAT (Chortoicetes terminifera; 6.25 g product A per hectare): 100%
- Effectiveness (%) against the locust Chortoicetes terminifera, Persistence of action 10 DAT (Chortoicetes terminifera; 6.25 g product A per hectare): 98%
- Effectiveness (%) against the locust Chortoicetes terminifera, Persistence of action 20 DAT (Chortoicetes terminifera; 6.25 g product A per hectare): 93%
- Effectiveness (%) against the locust Chortoicetes terminifera, Persistence of action 30 DAT (Chortoicetes terminifera; 6.25 g product A per hectare): 80%
- Effectiveness (%) against the locust Chortoicetes terminifera, Immediate Action 1 DAT Adults (Chortoicetes terminifera; 12.5 g product A per hectare): 100%
- Effectiveness (%) against the locust Chortoicetes terminifera, Immediate Action 1 DAT Nymphs (Chortoicetes terminifera; 12.5 g product A per hectare): 100%
- Effectiveness (%) against the locust Chortoicetes terminifera, Persistence of action 5 DAT (Chortoicetes terminifera; 12.5 g product A per hectare): 100%
- Effectiveness (%) against the locust Chortoicetes terminifera, Persistence of action 10 DAT (Chortoicetes terminifera; 12.5 g product A per hectare): 100%
- Effectiveness (%) against the locust Chortoicetes terminifera, Persistence of action 20 DAT (Chortoicetes terminifera; 12.5 g product A per hectare): 96%
- Effectiveness (%) against the locust Chortoicetes terminifera, Persistence of action 30 DAT (Chortoicetes terminifera; 12.5 g product A per hectare): 82%
- Effectiveness (%) against the locust Chortoicetes terminifera, Immediate Action 1 DAT Adults (Chortoicetes terminifera; 25 g product A per hectare): 100%
- Effectiveness (%) against the locust Chortoicetes terminifera, Immediate Action 1 DAT Nymphs (Chortoicetes terminifera; 25 g product A per hectare): 100%
- Effectiveness (%) against the locust Chortoicetes terminifera, Persistence of action 5 DAT (Chortoicetes terminifera; 25 g product A per hectare): 100%
- Effectiveness (%) against the locust Chortoicetes terminifera, Persistence of action 10 DAT (Chortoicetes terminifera; 25 g product A per hectare): 100%
- Effectiveness (%) against the locust Chortoicetes terminifera, Persistence of action 20 DAT (Chortoicetes terminifera; 25 g product A per hectare): 100%
- Effectiveness (%) against the locust Chortoicetes terminifera, Persistence of action 30 DAT (Chortoicetes terminifera; 25 g product A per hectare): 96%
- Effectiveness (%) against the locust (Schistocerca gregaria), Immediate Action 1 DAT (Schistocerca gregaria; 2.5 g product A per hectare): 58%
- Effectiveness (%) against the locust (Schistocerca gregaria), Immediate Action 2 DAT (Schistocerca gregaria; 2.5 g product A per hectare): 72%
- Effectiveness (%) against the locust (Schistocerca gregaria), Persistence of action 7 DAT (Schistocerca gregaria; 2.5 g product A per hectare): 88%
- Effectiveness (%) against the locust (Schistocerca gregaria), Persistence of action 14 DAT (Schistocerca gregaria; 2.5 g product A per hectare): 72%
- Effectiveness (%) against the locust (Schistocerca gregaria), Persistence of action 18 DAT (Schistocerca gregaria; 2.5 g product A per hectare): 56%
- Effectiveness (%) against the locust (Schistocerca gregaria), Immediate Action 1 DAT (Schistocerca gregaria; 5 g product A per hectare): 82%
- Effectiveness (%) against the locust (Schistocerca gregaria), Immediate Action 2 DAT (Schistocerca gregaria; 5 g product A per hectare): 93%
- Effectiveness (%) against the locust (Schistocerca gregaria), Persistence of action 7 DAT (Schistocerca gregaria; 5 g product A per hectare): 100%
- Effectiveness (%) against the locust (Schistocerca gregaria), Persistence of action 14 DAT (Schistocerca gregaria; 5 g product A per hectare): 93%
- Effectiveness (%) against the locust (Schistocerca gregaria), Persistence of action 18 DAT (Schistocerca gregaria; 5 g product A per hectare): 89%
- Effectiveness (%) against the locust (Schistocerca gregaria), Immediate Action 1 DAT (Schistocerca gregaria; 10 g product A per hectare): 96%
- Effectiveness (%) against the locust (Schistocerca gregaria), Immediate Action 2 DAT (Schistocerca gregaria; 10 g product A per hectare): 100%
- Effectiveness (%) against the locust (Schistocerca gregaria), Persistence of action 7 DAT (Schistocerca gregaria; 10 g product A per hectare): 100%
- Effectiveness (%) against the locust (Schistocerca gregaria), Persistence of action 14 DAT (Schistocerca gregaria; 10 g product A per hectare): 98%
- Effectiveness (%) against the locust (Schistocerca gregaria), Persistence of action 18 DAT (Schistocerca gregaria; 10 g product A per hectare): 92%
- Effectiveness (%) against the locust (Schistocerca gregaria), Immediate Action 1 DAT (Schistocerca gregaria; 20 g product A per hectare): 100%
- Effectiveness (%) against the locust (Schistocerca gregaria), Immediate Action 2 DAT (Schistocerca gregaria; 20 g product A per hectare): 100%
- Effectiveness (%) against the locust (Schistocerca gregaria), Persistence of action 7 DAT (Schistocerca gregaria; 20 g product A per hectare): 100%
- Effectiveness (%) against the locust (Schistocerca gregaria), Persistence of action 14 DAT (Schistocerca gregaria; 20 g product A per hectare): 100%
- Effectiveness (%) against the locust (Schistocerca gregaria), Persistence of action 18 DAT (Schistocerca gregaria; 20 g product A per hectare): 98%

From patent US6538014B1, “Process for the aggrochemical treatment of rangelands” (Bayer CropScience, Inc., priority 1992, dated 2003)
